Assay results: PubChem BioAssay (NCI)
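These data come from cells grown in 96-well plates and exposed to compound for 48 hours at five concentrations. TGI marks complete inhibition of growth.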

Tests used:
Assay in all cases: DTP human tumour cell line panel, 48 h
[1] = system: ACHN renal
[2] = system: HCC-2998 colon
[3] = system: OVCAR-3 ovarian
[4] = system: HCT-15 colon
[5] = system: SK-MEL-28 melanoma
[6] = system: 786-0 renal
[7] = system: U251 CNS
[8] = system: MALME-3M melanoma
[9] = system: SF-539 CNS
[10] = system: HOP-92 NSCLC
[11] = system: COLO 205 colon
[12] = system: EKVX NSCLC
[13] = system: HS 578T breast
[14] = system: MDA-MB-231 breast

C[C@@H]1C[C@@H](O)[C@@]2(O)C13CC(=O)OC(C3)[C@@H](C)[C@@]2(C)CO (some centres undefined)
TGI [1]: > 100 µM | TGI [2]: > 100 µM | TGI [3]: > 100 µM | TGI [4]: > 100 µM | TGI [5]: > 100 µM | TGI [6]: > 100 µM | TGI [7]: > 100 µM | TGI [8]: > 100 µM | TGI [9]: > 100 µM | TGI [10]: > 100 µM | TGI [11]: > 100 µM | TGI [12]: > 100 µM | TGI [13]: > 100 µM | TGI [14]: > 100 µM

CC1(C)C=[N+]([O-])C(C)(C)N1
TGI [1]: > 100 µM | TGI [2]: > 100 µM | TGI [3]: > 100 µM | TGI [4]: > 100 µM | TGI [5]: > 100 µM | TGI [6]: > 100 µM | TGI [7]: > 100 µM | TGI [8]: > 100 µM | TGI [9]: > 100 µM | TGI [10]: > 100 µM | TGI [11]: > 100 µM | TGI [12]: > 100 µM | TGI [13]: > 100 µM | TGI [14]: > 100 µM

NC1=CC(C(=O)c2ccncc2)c2nc3ccccc3nc21 (centres undefined)
TGI [1]: > 100 µM | TGI [2]: > 100 µM | TGI [3]: > 100 µM | TGI [4]: > 100 µM | TGI [5]: > 100 µM | TGI [6]: > 100 µM | TGI [7]: > 100 µM | TGI [8]: > 100 µM | TGI [9]: > 100 µM | TGI [10]: > 100 µM | TGI [11]: > 100 µM | TGI [12]: > 100 µM | TGI [13]: > 100 µM | TGI [14]: > 100 µM

COc1cc(/C=C2/SC(c3ccccc3)N(c3ccc(Cl)cc3)C2=O)cc(OC)c1OC (centres undefined)
TGI [1]: > 100 µM | TGI [2]: > 100 µM | TGI [3]: > 100 µM | TGI [4]: > 100 µM | TGI [5]: > 100 µM | TGI [6]: > 100 µM | TGI [7]: > 100 µM | TGI [8]: > 100 µM | TGI [9]: > 100 µM | TGI [10]: > 100 µM | TGI [11]: > 42.6 µM | TGI [12]: > 100 µM | TGI [13]: > 100 µM | TGI [14]: > 100 µM

CS(=O)(=O)c1[nH]nc2[nH]c(=O)[nH]c(=O)c12
TGI [1]: > 10 µM | TGI [2]: > 10 µM | TGI [3]: > 10 µM | TGI [4]: > 10 µM | TGI [5]: > 10 µM | TGI [6]: > 10 µM | TGI [7]: > 10 µM | TGI [8]: > 10 µM | TGI [9]: > 10 µM | TGI [10]: > 10 µM | TGI [11]: > 10 µM | TGI [12]: > 10 µM | TGI [13]: > 10 µM | TGI [14]: > 10 µM

O=C1SC(c2ccc(Cl)cc2)(c2ccc(Cl)cc2)c2ccccc21
TGI [1]: > 100 µM | TGI [2]: > 100 µM | TGI [3]: > 100 µM | TGI [4]: > 100 µM | TGI [5]: > 100 µM | TGI [6]: > 100 µM | TGI [7]: > 100 µM | TGI [8]: > 100 µM | TGI [9]: > 100 µM | TGI [10]: > 100 µM | TGI [11]: > 100 µM | TGI [12]: > 100 µM | TGI [13]: > 100 µM | TGI [14]: > 100 µM

c1ccc([C@@H]2N[C@@]3(CO[Si](c4ccccc4)(c4ccccc4)c4ccccc4)CC[C@H]4CN[C@@H]2[C@H]43)cc1
TGI [1]: 26.6 µM | TGI [2]: 3.05 µM | TGI [3]: 27 µM | TGI [4]: 10.4 µM | TGI [5]: 35.6 µM | TGI [6]: 25.9 µM | TGI [7]: 30.9 µM | TGI [8]: 2.65 µM | TGI [9]: 28.6 µM | TGI [10]: 15.9 µM | TGI [11]: 3.14 µM | TGI [12]: 29.5 µM | TGI [13]: 36.3 µM | TGI [14]: 25.9 µM

COc1ccc2nc3cc([N+](=O)[O-])ccc3c(NNc3ccc(Cl)cc3)c2c1
TGI [1]: > 82.2 µM | TGI [2]: 60.6 µM | TGI [3]: > 20.5 µM | TGI [4]: > 100 µM | TGI [5]: > 100 µM | TGI [6]: 53.6 µM | TGI [7]: 74.6 µM | TGI [8]: > 100 µM | TGI [9]: 97.5 µM | TGI [10]: 57.9 µM | TGI [11]: 60.8 µM | TGI [12]: 99 µM | TGI [13]: > 100 µM | TGI [14]: > 73.1 µM

OCCSCc1cc2c(O)c(c1)Cc1cc(CSCCO)cc(c1O)Cc1cc(CSCCO)cc(c1O)Cc1cc(CSCCO)cc(c1O)C2
TGI [1]: 9.61 µM | TGI [2]: 23.1 µM | TGI [3]: 4.27 µM | TGI [4]: 33 µM | TGI [5]: 13.1 µM | TGI [6]: 12.5 µM | TGI [7]: 16.8 µM | TGI [8]: 5.88 µM | TGI [9]: 12.6 µM | TGI [10]: 15.2 µM | TGI [11]: 7.31 µM | TGI [12]: 46.1 µM | TGI [13]: 42.8 µM | TGI [14]: 7.21 µM

COc1ccc2c(c1)N(C(C)=O)CN1C(=O)CCC21 (centres undefined)
TGI [1]: > 100 µM | TGI [2]: > 100 µM | TGI [3]: > 100 µM | TGI [4]: > 100 µM | TGI [5]: > 100 µM | TGI [6]: > 100 µM | TGI [7]: > 100 µM | TGI [8]: > 100 µM | TGI [9]: > 100 µM | TGI [10]: > 100 µM | TGI [11]: > 100 µM | TGI [12]: > 100 µM | TGI [13]: > 100 µM | TGI [14]: > 100 µM

Nc1nc(Cl)cc(NCC2(CO)CCC2)n1
TGI [1]: > 100 µM | TGI [2]: > 100 µM | TGI [3]: > 100 µM | TGI [4]: > 100 µM | TGI [5]: > 100 µM | TGI [6]: > 100 µM | TGI [7]: > 100 µM | TGI [8]: > 100 µM | TGI [9]: > 100 µM | TGI [10]: > 100 µM | TGI [11]: > 100 µM | TGI [12]: > 100 µM | TGI [13]: > 100 µM | TGI [14]: > 100 µM

N#CC1=C(C#N)/C(=C(\C#N)C(C#N)C#N)N=C1N
TGI [1]: > 100 µM | TGI [2]: > 100 µM | TGI [3]: > 100 µM | TGI [4]: 64.3 µM | TGI [5]: 52 µM | TGI [6]: > 100 µM | TGI [7]: > 100 µM | TGI [8]: 38.2 µM | TGI [9]: 54.5 µM | TGI [10]: > 75 µM | TGI [11]: 57.3 µM | TGI [12]: > 100 µM | TGI [13]: > 100 µM | TGI [14]: > 100 µM

C/C(=N\NS(=O)(=O)c1ccc(C)cc1)C(CN(C)C)C(c1ccccc1)c1c(O)c2ccccc2oc1=O (centres undefined)
TGI [1]: > 100 µM | TGI [2]: > 100 µM | TGI [3]: > 100 µM | TGI [4]: > 100 µM | TGI [5]: > 100 µM | TGI [6]: > 100 µM | TGI [7]: > 100 µM | TGI [8]: > 100 µM | TGI [9]: > 100 µM | TGI [10]: > 100 µM | TGI [11]: > 100 µM | TGI [12]: > 100 µM | TGI [13]: > 100 µM | TGI [14]: > 100 µM

Cn1cnc2c(OCC3CCCCC3)nc(N)nc21
TGI [1]: > 100 µM | TGI [2]: > 100 µM | TGI [3]: > 100 µM | TGI [4]: > 100 µM | TGI [5]: > 100 µM | TGI [6]: > 100 µM | TGI [7]: > 100 µM | TGI [8]: > 100 µM | TGI [9]: > 100 µM | TGI [10]: > 100 µM | TGI [11]: > 100 µM | TGI [12]: > 100 µM | TGI [13]: > 100 µM | TGI [14]: > 100 µM

Cc1cc(NC(=O)C(=O)Cc2cnc3ccccc3n2)c(S(=O)(=O)O)cc1Cl
TGI [1]: > 100 µM | TGI [2]: > 100 µM | TGI [3]: > 100 µM | TGI [4]: > 100 µM | TGI [5]: > 100 µM | TGI [6]: > 100 µM | TGI [7]: > 100 µM | TGI [8]: > 100 µM | TGI [9]: > 100 µM | TGI [10]: > 100 µM | TGI [11]: > 100 µM | TGI [12]: > 100 µM | TGI [13]: > 100 µM | TGI [14]: > 100 µM

C=C1CC2(OC1=O)c1ccccc1C=Cc1ccccc12
TGI [1]: 9.83 µM | TGI [2]: 13.5 µM | TGI [3]: 8.9 µM | TGI [4]: 7.77 µM | TGI [5]: 9.32 µM | TGI [6]: 6.16 µM | TGI [7]: 15.5 µM | TGI [8]: 9.71 µM | TGI [9]: 6.72 µM | TGI [10]: 3.44 µM | TGI [11]: 5.82 µM | TGI [12]: 18.3 µM | TGI [13]: 6.29 µM | TGI [14]: 5.41 µM
